Our source for the inhibition values is patent US12568968B2, “Herbicide combinations comprising glufosinate and epyrifencacil” (BASF SE, priority 2020, dated 2026).

Common to all, as to experiment: Greenhouse post-emergence weed control, percent injury vs untreated control
Common to all, as to assay type: in vivo

Test [1] deals with Amaranthus tuberculatus (AMATU). Particulars: 480 h, 20 DAT.
Test [2] has as its system Amaranthus Palmeri (AMAPA). Particulars: 480 h, 20 DAT.
Test [3] concerns Abutilon theophrasti (ABUTH). The following applies: 480 h, 20 DAT.
Another test deals with Hordeum vulgare (HORVS). Particulars: 480 h, 20 DAT.
A further test concerns Avena fatua (AVEFA). The following applies: 480 h, 20 DAT, 1% MSO.
[4] abbreviates: 50 g ai/ha, read-out: Solo Glufosinate % activity.
Where [5] appears, read: 200 g ai/ha, read-out: Solo Glufosinate % activity.
Setting [6] is: 0.9 g ai/ha, read-out: Solo epyrifenacil % activity.

Take `CP(=O)(O)CCC(N)C(=O)O` (racemic) [Glufosinate, (2RS)-2-amino-4-[hydroxy(methyl)phosphinoyl]butyric acid]: the inhibition at 50 g/ha (in test [1] (setting [4]); in the test with Avena fatua (AVEFA) (setting [4])) was 10% each time. Moreover, the inhibition at 100 g/ha in test [1] (100 g ai/ha, read-out: Solo Glufosinate % activity) was determined as 10%. The inhibition at 200 g/ha was 70% in test [1] (setting [5]); 75% in test [2] (200 g ai/ha, Table 5, read-out: Solo Glufosinate % activity); 10% in test [3] (setting [5]); 25% in the test with Hordeum vulgare (HORVS) (setting [5]).
Turning to `CCOC(=O)COc1ncccc1Oc1cc(-n2c(=O)cc(C(F)(F)F)n(C)c2=O)c(F)cc1Cl` [epyrifenacil, Acetic acid, 2-[[3-[2-chloro-5-[3,6-dihydro-3-methyl-2,6-dioxo-4-(trifluoromethyl)-1(2H)-pyrimidinyl]-4-fluorophenoxy]-2-pyridinyl]oxy]-, ethyl ester], the inhibition at 0.9 g/ha in test [1] (0.9 g ai/ha, Table 2, read-out: Solo epyrifenacil % activity) amounted to 75%; in test [2] (setting [6]), 20%; with Hordeum vulgare (HORVS) (setting [6]), 10%; in the test on Avena fatua (AVEFA) (setting [6]), 15%. The inhibition at 0.3 g/ha in test [2] (0.3 g ai/ha, read-out: Solo epyrifenacil % activity) is 15%. In test [3] (0.1 g ai/ha, read-out: Solo epyrifenacil % activity), the inhibition at 0.1 g/ha came out at 25%.
